Data as given in patent US8012978B2, “Prodrugs of CC-A1065 analogs” (ImmunoGen, Inc., priority 2006, dated 2011).
Like-named read-outs stand apart in the source and are kept apart here.

Assays:
[1] = system: Namalwa cells; experiment: In vitro cytotoxicity towards Namalwa cells; type: cell-based, human; conditions: Namalwa cells (FIG. 8)
Description: (§1) Cytotoxicity of the prodrugs of the present invention and their conjugates with cell binding agents can be measured after cleavage of the protecting group and conversion into the active drug. Cytotoxicity to non-adherent cell lines such as Namalwa and HL60 can be measured by back-extrapolation of cell proliferation curves as described in Goldmacher et al, 135 J. Immunol. 3648-3651 (1985). Cytotoxicity of these compounds to adherent cell lines such as A-375 and SCaBER can be determined by clonogenic assays as described in Goldmacher et al, 102 J. Cell Biol. 1312-1319 (1986).
(§2) The human cancer cell lines HL60, Namalwa, A-375, COLO205 and Ramos were obtained from the American Type Culture Collection (ATCC). Kara is a murine tumor cell line that has been stably transfected with the human CD33 antigen.
(§3) • Cytotoxicity of DC08-SSPy towards Namalwa and Ramos cells has been measured. Results are given in FIG. 8 and IC50 are shown below.

[2] = system: Ramos cells; experiment: In vitro cytotoxicity towards Ramos cells; type: cell-based, human
Protocol: (§4) Sulfide or disulfide-containing and mercapto-containing prodrugs of CC-1065 analogs of the present invention can be evaluated for their ability to suppress proliferation of various unwanted cell lines in vitro under incubation conditions. Cell lines such as, for example, Ramos cell line and HL60 can easily be used for the assessment of the cytotoxicity of these compounds. Cells to be evaluated can be exposed to the compounds for 24 hours and the surviving fractions of cells measured in direct assays by known methods. IC50 values can then be calculated from the results of the assays.
as §1, §2
• Cytotoxicity of DC07-SMe (FIG. 2) and DC1-SMe (FIG. 1D) towards Ramos and HL60/S cells has been measured in vitro with 5-day exposure. IC50 are shown below.
• Cytotoxicity of DC1-SPy and DC07-SPy towards Ramos and HL60 cells has been measured. Results are given in FIG. 7 and IC50 are shown below.
as §3
• Cytotoxicity of MY9-6-DC07 (disulfide linked) towards antigen positive Kara and antigen negative Ramos cells has been measured. Results are given in FIG. 9 and IC50 are shown below.

[3] = system: HL60 cells; experiment: In vitro cytotoxicity towards HL60 cells; type: cell-based, human; conditions: HL60/s cells, 5-day exposure; read-out: IC50 Concentration
Protocol: as §4
as §1, with “(1986). […]” for “(1986).”
• Cytotoxicity of DC07-SMe (FIG. 2) and DC1-SMe (FIG. 1D) towards Ramos and HL60/S cells has been measured in vitro with 5-day exposure. […]
• Cytotoxicity of DC1-SPy and DC07-SPy towards Ramos and HL60 cells has been measured. […]

[4] = Conversion of prodrug by incubation in mice serum; type: in vitro ADME
Description: (§5) The synthesis of prodrugs DC07 (7a), DC08 (8a) and DC107 (FIG. 4) is described herein. DC07 and DC08 as well as DC107 are derived from the parent drug DC1 and DC101, while DC09 (9a) can be prepared from the pegylated parent drug DC5 which was described in U.S. Pat. No. 6,756,397 B2 (FIG. 3). […] These drugs also have enhanced water solubility as compared with DC1.

[5] = system: mice; conditions: single intravenous dose of 12.5 μg/kg; cited from earlier work
[6] = cited from earlier work
[7] = Stability in aqueous solutions; type: physicochemical; conditions: pH 5.5 or below
Description: as §5

[8] = Conversion of prodrug by incubation in serum or plasma; type: in vitro ADME
Description: as §5

[9] = system: A-375 cells; experiment: In vitro cytotoxicity towards antigen negative A-375 cells; type: cell-based, human
Description: as §1, §2
(§6) • Cytotoxicity of huC242-DC07 (thioether linked) towards antigen positive COLO 205 and antigen negative A-375 cells has been measured. Results are given in FIG. 10 and IC50 are shown below.

[10] = system: COLO 205 cells; experiment: In vitro cytotoxicity towards antigen positive COLO 205 cells; type: cell-based, human
Description: as §1, §2, §6

[11] = Ramos cells, 5-day exposure, read-out: IC50 Concentration

Which results are given for “(S)—N-[2-{(1-chloromethyl)-1,2-dihydro-5-[(3-hydroxysulfonylmethyl-phenyl)aminocarbonyloxy]-3H-benz(e)indol-3-yl}carbonyl]-H-indol-5-yl]-5-{[3-(2-pyridyldithio)-propanoyl]-amino}-1H-indole-2-carboxamide [DC08-SSPy]”?
IC50 [1]: 0.42 nM; IC50 ([2]; Ramos cells (FIG. 8), read-out: IC50): 0.42 nM

Which IC50 [2, 11] does the source give for CSSCCC(=O)Nc1ccc2[nH]c(C(=O)Nc3ccc4[nH]c(C(=O)N5C[C@@H](CCl)c6c5cc(OC(=O)Nc5cccc(S(=O)(=O)O)c5)c5ccccc65)cc4c3)cc2c1 [DC07-SMe] here?
The IC50 was 0.12 nM.

And the IC50 [3]?
Its IC50 is 0.05 nM.

What about the “conversion into the parent drug” value [4] of the same molecule?
Its value is “converts it into the parent drug DC1SMe”.

Which IC50 [2, 11] does the source give for CSSCCC(=O)Nc1ccc2[nH]c(C(=O)Nc3ccc4[nH]c(C(=O)N5C[C@@H](CCl)c6c5cc(O)c5ccccc65)cc4c3)cc2c1 [DC1-SMe, 1-[S]-(chloromethyl)-5-hydroxy-3-{{5-[5-(3-methyldithiopropionyl)indol-2-yl-carbonylamino]indole-2-yl}carbonyl}-1,2-dihydro-3H-benz[e]indole, reference compound] here?
Its IC50 is 0.062 nM.

And the IC50 [3]?
Its IC50 is 0.036 nM.

What does the source list for COc1c(O)c2c(c3cc(C(=O)N4CCc5c4c(O)c(OC)c4[nH]c(C(=O)N6CC7CC78C6=CC(=O)c6[nH]cc(C)c68)cc54)[nH]c13)CCN2C(N)=O (stereo not shown) [CC-1065]?
toxicity [5]: delayed hepatotoxicity leading to mortality on day 50; potency in vitro relative to doxorubicin, methotrexate and vincristine [6]: about 1000 fold

Which “stability in aqueous solutions” value [7] does the source give for O=C(CCS)Nc1ccc2[nH]c(C(=O)Nc3ccc4[nH]c(C(=O)N5C[C@@H](CCl)c6c5cc(OC(=O)Nc5cccc(S(=O)(=O)O)c5)c5ccccc65)cc4c3)cc2c1 [DC07] here?
Its value is “extremely stable”.

What about the “conversion into the parent drug” value [8] of the same molecule?
Its value is “can be converted into the parent drug DC1”.

B1: huC242-DC07: huC242-DC07 (thioether linked) conjugate (conjugate, chains of the INN, looked up)
VH: QVQLVQSGAEVKKPGETVKISCKASDYTFTYYGMNWVKQAPGQGLKWMGWIDTTTGEPTYAQKFQGRIAFSLETSASTAYLQIKSLKSEDTATYFCARRGPYNWYFDVWGQGTTVTVSS
VL: DIVMTQSPLSVPVTPGEPVSISCRSSKSLLHSNGNTYLYWFLQRPGQSPQLLIYRMSNLVSGVPDRFSGSGSGTAFTLRISRVEAEDVGVYYCLQHLEYPFTFGPGTKLELK
modifications: DC07 drug, thioether linked
notes: huC242-DC07 (thioether linked) conjugate
With B1 as the molecule, how does the IC50 [9] read?
The IC50 was 1.3 nM.

What about the IC50 [10] of the same molecule?
The IC50 was 0.035 nM.
